Source: PMC5007854, “β-Nitrostyrenes as Potential Anti-leishmanial Agents” (Frontiers in Microbiology, 2016)
In brackets after ≈: the same amount, converted by molar mass. Read-outs that look alike come from different tables or passages of the source.

Experiments:
[1] = test system: murine macrophage cell line RAW264.7; experiment: Ex vivo cytotoxicity assay (MTT); format: cell-based; details: increasing concentrations, 48 h, 37°C (Figure 6)
Method: Murine macrophage cell line, RAW264.7 was grown at 37°C in medium RPMI-1640 (pH 7.4, Sigma-Aldrich, St. Louis, MO, USA) supplemented with 10% heat-inactivated FBS for 48 to 72 h in a humidified atmosphere of 5% CO2 and sub-cultured in fresh RPMI-1640 medium at an average density 2 × 10^5 cells/ml (Islamuddin et al., [2014b]).
To evaluate the adverse toxicity of test compounds (9, 12, 14, and 18) on mammalian cells, the murine macrophage cell line (RAW264.7) cultured in RPMI 1640 medium were exposed to increasing concentrations of test compounds (5–50 μM) at 37°C, 5% CO2 for 48 h. AmB as the reference drug, and macrophages without any treatment were taken as control. The percentage of cell viability was evaluated by MTT (3-{4, 5-dimethylthiazol-2-yl}-2, 5-diphenyltetrazoliumbromide) assay (Das et al., [2008]).

[2] = test system: L. donovani promastigotes; experiment: Dose-dependent anti-promastigote activity, IC50 and IC90; format: cell-based, Leishmania donovani; details: Leishmania donovani, 72 h; for IC50: read-out: L. donovani promastigotes IC50 ± SEM; for IC90: read-out: L. donovani promastigotes IC90 ± SEM
Method: L. donovani parasites (MHOM/IN/83/AG83) were maintained in vivo in BALB/c mice. Promastigotes were routinely cultured at 22°C in medium M199 supplemented with 10% heat inactivated fetal bovine serum (FBS, HiMedia Laboratories, Mumbai, India), penicillin 100 (IU/ml), streptomycin (100 μg/ml). Log phase promastigotes were sub-cultured every 72–96 h, the inoculum being 2 × 10^6 cells/ml (Afrin et al., [2002]).
AmB was used as a standard antileishmanial drug control. The cell viability was evaluated by microscopically and the mean percentage viability was calculated as follows: Mean cell number of treated parasites / Mean cell number of untreated parasites × 100. The 50 and 90% inhibitory concentration (IC50 and IC90) i.e., the concentration of drugs that decreased the cell growth by 50 and 90% respectively was determined by graphical extrapolation after plotting the graph of % viability vs. concentration of drug (Islamuddin et al., [2014b]).
In vitro antileishmanial activity was expressed as IC50 by linear regression analysis. Values are mean ± SE of samples in triplicate from at least three independent experiments. Statistical analysis was performed using ANOVA followed by Dunnett's test. ^*P < 0.05, ^**P < 0.01 and ^***P < 0.001 compared with the untreated control group were considered significant.

[3] = test system: Candida species; experiment: Broth microdilution, pooled statement for Candida species; format: cell-based; details: range over C. albicans and C. glabrata
Text: (§1) One reference each of the following species was used for their in vitro susceptibility to β-nitrostyrene in this study: Staphylococcus aureus ATCC 29213, Staphylococcus epidermidis ATCC 14990, Escherichia coli ATCC 25922, Pseudomonas aeruginosa ATCC 27853, Candida albicans ATCC 90028, Candida glabrata ATCC 90030, Aspergillus fumigatus ATCC 16424 and Aspergillus niger ATCC 16404. These strains were procured from the American Type Culture Collection (ATCC, Manassas, VA, USA).
(§2) The antibacterial and antifungal activities of the β-nitrostyrenes were performed by broth microdilution methods as per the guidelines of Clinical and Laboratory Standard Institute (Wayne, [1998], [2008a],[b],[c]) by using Mueller-Hinton broth (MHB; Becton-Dickinson, Cockeysville, MD, USA) supplemented with calcium (25 mg/L) and magnesium (12.5 mg/L) for bacterial strains while as RPMI 1640 medium with L-glutamine and without sodium bicarbonate, buffered to pH 7.0 with 0.165 M 3-(N-morpholino) propanesulfonic acid (MOPS; both from Sigma) was used for fungal strains. […] The plates were read visually and the minimum inhibitory concentration (MIC) was defined as the lowest concentration of test sample that prevented visible growth with respect to the growth control.

[4] = test system: Aspergillus species; experiment: Broth microdilution, pooled statement for Aspergillus species; format: cell-based; details: range over A. fumigatus and A. niger
Text: as §1, §2

[5] = test system: gram-positive bacteria (S. aureus and S. epidermidis); experiment: Broth microdilution, pooled statement for gram-positive bacteria; format: cell-based; details: Staphylococcus aureus; range over both strains
Text: as §1, §2

[6] = 22°C, mean from three determinations

Structure (SMILES) | Adverse toxicity on macrophage cell line RAW264.7 [1] | melting point | IC50 [2] | IC90 [2] | IC50 [2, 6] | IC90 [2, 6] | MIC [3] | MIC [4] | MIC [5]
CC/C(=C\c1ccc([N+](=O)[O-])cc1)[N+](=O)[O-] [Compound 9, 1-nitro-4-((E)-2-nitrobut-1-enyl) benzene] | Absence of adverse toxicity | 104 to 106 °C | 23.4 ± 0.71 nM | 90.2 ± 1.11 nM |  |  |  |  | 
CC/C(=C\c1ccc(O)cc1)[N+](=O)[O-] [Compound 18, 4-((E)-2-nitrobut-1-enyl) phenol] | Absence of adverse toxicity |  |  |  | 55.7 ± 2.84 nM | 320 ± 3.65 nM |  |  | 
CC/C(=C\c1cccc([N+](=O)[O-])c1)[N+](=O)[O-] [Compound 12, 1-nitro-3-((E)-2-nitrobut-1-enyl) benzene] | Absence of adverse toxicity | 84 to 86 °C | 37.8 ± 3.74 nM | 86.46 ± 0.21 nM |  |  | 0.25 to 2 µg/mL (≈ 1.13 to 9 µM) | 0.5 to 1 µg/mL (≈ 2.25 to 4.5 µM) | 0.25 to 0.5 µg/mL (≈ 1.13 to 2.25 µM)
COc1ccc(/C=C(\C)[N+](=O)[O-])cc1 [Compound 14, 1-methoxy-4-((E)-2-nitroprop-1-enyl) benzene] | Absence of adverse toxicity |  |  |  | 40.5 ± 1.47 nM | 89 ± 0.52 nM |  |  | 
